Experimental data taken from ChEMBL document CHEMBL4507278 (2021).

Columns and labels:
[1] = system: Tyrosine-protein kinase ABL1 (Homo sapiens), P00519 [E255K]; details: Compound concentration 1000.0 nM
[2] = system: ALK tyrosine kinase receptor (Homo sapiens), Q9UM73 [C1156Y]; details: Compound concentration 1000.0 nM
[3] = molecular target: Bone morphogenetic protein receptor type-1B (Homo sapiens) (UniProt O00238); details: Compound concentration 1000.0 nM
[4] = molecular target: Cyclin-dependent kinase 8 (Homo sapiens) (UniProt P49336); details: Compound concentration 1000.0 nM
Chain of Cyclin-dependent kinase 8 (Homo sapiens) (P49336 whole entry): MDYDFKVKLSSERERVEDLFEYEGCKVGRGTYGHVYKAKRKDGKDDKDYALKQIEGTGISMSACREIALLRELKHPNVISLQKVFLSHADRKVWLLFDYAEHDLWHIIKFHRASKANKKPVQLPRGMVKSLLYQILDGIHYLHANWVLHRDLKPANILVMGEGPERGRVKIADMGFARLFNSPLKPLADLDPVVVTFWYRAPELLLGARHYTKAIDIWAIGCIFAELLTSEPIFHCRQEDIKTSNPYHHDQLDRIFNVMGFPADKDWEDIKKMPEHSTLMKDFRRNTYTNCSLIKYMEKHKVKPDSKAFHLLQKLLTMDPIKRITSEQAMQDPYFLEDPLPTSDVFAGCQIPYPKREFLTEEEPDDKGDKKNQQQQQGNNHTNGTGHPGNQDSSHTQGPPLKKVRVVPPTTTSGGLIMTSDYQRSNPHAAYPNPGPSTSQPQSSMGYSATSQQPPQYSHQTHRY

[5] = molecular target: Dual specificity tyrosine-phosphorylation-regulated kinase 2 (Homo sapiens) (UniProt Q92630); details: Compound concentration 1000.0 nM
[6] = system: Epidermal growth factor receptor (Homo sapiens), P00533 [L858R,T790M]; details: Compound concentration 1000.0 nM
[7] = molecular target: Ephrin type-A receptor 3 (Homo sapiens) (UniProt P29320); details: Compound concentration 1000.0 nM
[8] = molecular target: Ephrin type-B receptor 1 (Homo sapiens) (UniProt P54762); details: Compound concentration 1000.0 nM
[9] = molecular target: Mitogen-activated protein kinase 6 (Homo sapiens) (UniProt Q16659); details: Compound concentration 1000.0 nM
Chain of Mitogen-activated protein kinase 6 (Homo sapiens) (Q16659 whole entry): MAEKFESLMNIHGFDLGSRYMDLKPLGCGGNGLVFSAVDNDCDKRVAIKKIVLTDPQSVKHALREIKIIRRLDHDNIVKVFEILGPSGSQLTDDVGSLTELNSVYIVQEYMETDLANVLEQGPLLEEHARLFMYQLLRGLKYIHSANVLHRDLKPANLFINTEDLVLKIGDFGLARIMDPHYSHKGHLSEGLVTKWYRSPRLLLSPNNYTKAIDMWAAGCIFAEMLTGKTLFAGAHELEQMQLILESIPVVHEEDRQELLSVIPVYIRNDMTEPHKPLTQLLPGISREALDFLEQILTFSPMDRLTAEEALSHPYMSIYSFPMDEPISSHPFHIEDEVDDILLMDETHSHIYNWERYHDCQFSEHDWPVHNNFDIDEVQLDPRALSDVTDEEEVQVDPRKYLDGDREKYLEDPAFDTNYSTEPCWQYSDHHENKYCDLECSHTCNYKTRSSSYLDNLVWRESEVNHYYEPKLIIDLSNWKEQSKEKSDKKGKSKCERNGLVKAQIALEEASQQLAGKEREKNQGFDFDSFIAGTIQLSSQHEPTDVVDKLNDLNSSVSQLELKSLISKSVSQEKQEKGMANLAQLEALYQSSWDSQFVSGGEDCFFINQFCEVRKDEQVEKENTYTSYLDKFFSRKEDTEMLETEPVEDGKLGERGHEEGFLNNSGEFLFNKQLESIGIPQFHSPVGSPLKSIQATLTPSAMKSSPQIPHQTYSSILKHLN

[10] = system: Receptor-type tyrosine-protein kinase FLT3 (Homo sapiens), P36888 [N841I]; details: Compound concentration 1000.0 nM
[11] = molecular target: Vascular endothelial growth factor receptor 3 (Homo sapiens) (UniProt P35916); details: Compound concentration 1000.0 nM
[12] = molecular target: Rhodopsin kinase GRK1 (Homo sapiens) (UniProt Q15835); details: Compound concentration 1000.0 nM
[13] = molecular target: Rhodopsin kinase GRK7 (Homo sapiens) (UniProt Q8WTQ7); details: Compound concentration 1000.0 nM
[14] = molecular target: Serine/threonine-protein kinase ICK (Homo sapiens) (UniProt Q9UPZ9); details: Compound concentration 1000.0 nM
[15] = molecular target: Tyrosine-protein kinase JAK2 (Homo sapiens) (UniProt O60674); details: Compound concentration 1000.0 nM
[16] = system: Mast/stem cell growth factor receptor Kit (Homo sapiens), P10721 [V559D]; details: Compound concentration 1000.0 nM
[17] = molecular target: Mast/stem cell growth factor receptor Kit (Homo sapiens) (UniProt P10721); details: Compound concentration 1000.0 nM
[18] = molecular target: Tyrosine-protein kinase Lck (Homo sapiens) (UniProt P06239); details: Compound concentration 1000.0 nM
[19] = molecular target: Mitogen-activated protein kinase kinase kinase kinase 4 (Homo sapiens) (UniProt O95819); details: Compound concentration 1000.0 nM
[20] = molecular target: MAP kinase-activated protein kinase 2 (Homo sapiens) (UniProt P49137); details: Compound concentration 1000.0 nM
[21] = molecular target: Dual specificity mitogen-activated protein kinase kinase 6 (Homo sapiens) (UniProt P52564); details: Compound concentration 1000.0 nM
[22] = molecular target: Serine/threonine-protein kinase MRCK beta (Homo sapiens) (UniProt Q9Y5S2); details: Compound concentration 1000.0 nM
[23] = molecular target: Myosin light chain kinase 2, skeletal/cardiac muscle (Homo sapiens) (UniProt Q9H1R3); details: Compound concentration 1000.0 nM
[24] = molecular target: Serine/threonine-protein kinase Nek7 (Homo sapiens) (UniProt Q8TDX7); details: Compound concentration 1000.0 nM
[25] = molecular target: Cyclin-dependent kinase 16 (Homo sapiens) (UniProt Q00536); details: Compound concentration 1000.0 nM
[26] = molecular target: Cyclin-dependent kinase 18 (Homo sapiens) (UniProt Q07002); details: Compound concentration 1000.0 nM
[27] = molecular target: cAMP-dependent protein kinase catalytic subunit alpha (Homo sapiens) (UniProt P17612); details: Compound concentration 1000.0 nM
[28] = molecular target: Rho-associated protein kinase 2 (Homo sapiens) (UniProt O75116); details: Compound concentration 1000.0 nM
Chain of Rho-associated protein kinase 2 (Homo sapiens) (O75116 whole entry, looked up): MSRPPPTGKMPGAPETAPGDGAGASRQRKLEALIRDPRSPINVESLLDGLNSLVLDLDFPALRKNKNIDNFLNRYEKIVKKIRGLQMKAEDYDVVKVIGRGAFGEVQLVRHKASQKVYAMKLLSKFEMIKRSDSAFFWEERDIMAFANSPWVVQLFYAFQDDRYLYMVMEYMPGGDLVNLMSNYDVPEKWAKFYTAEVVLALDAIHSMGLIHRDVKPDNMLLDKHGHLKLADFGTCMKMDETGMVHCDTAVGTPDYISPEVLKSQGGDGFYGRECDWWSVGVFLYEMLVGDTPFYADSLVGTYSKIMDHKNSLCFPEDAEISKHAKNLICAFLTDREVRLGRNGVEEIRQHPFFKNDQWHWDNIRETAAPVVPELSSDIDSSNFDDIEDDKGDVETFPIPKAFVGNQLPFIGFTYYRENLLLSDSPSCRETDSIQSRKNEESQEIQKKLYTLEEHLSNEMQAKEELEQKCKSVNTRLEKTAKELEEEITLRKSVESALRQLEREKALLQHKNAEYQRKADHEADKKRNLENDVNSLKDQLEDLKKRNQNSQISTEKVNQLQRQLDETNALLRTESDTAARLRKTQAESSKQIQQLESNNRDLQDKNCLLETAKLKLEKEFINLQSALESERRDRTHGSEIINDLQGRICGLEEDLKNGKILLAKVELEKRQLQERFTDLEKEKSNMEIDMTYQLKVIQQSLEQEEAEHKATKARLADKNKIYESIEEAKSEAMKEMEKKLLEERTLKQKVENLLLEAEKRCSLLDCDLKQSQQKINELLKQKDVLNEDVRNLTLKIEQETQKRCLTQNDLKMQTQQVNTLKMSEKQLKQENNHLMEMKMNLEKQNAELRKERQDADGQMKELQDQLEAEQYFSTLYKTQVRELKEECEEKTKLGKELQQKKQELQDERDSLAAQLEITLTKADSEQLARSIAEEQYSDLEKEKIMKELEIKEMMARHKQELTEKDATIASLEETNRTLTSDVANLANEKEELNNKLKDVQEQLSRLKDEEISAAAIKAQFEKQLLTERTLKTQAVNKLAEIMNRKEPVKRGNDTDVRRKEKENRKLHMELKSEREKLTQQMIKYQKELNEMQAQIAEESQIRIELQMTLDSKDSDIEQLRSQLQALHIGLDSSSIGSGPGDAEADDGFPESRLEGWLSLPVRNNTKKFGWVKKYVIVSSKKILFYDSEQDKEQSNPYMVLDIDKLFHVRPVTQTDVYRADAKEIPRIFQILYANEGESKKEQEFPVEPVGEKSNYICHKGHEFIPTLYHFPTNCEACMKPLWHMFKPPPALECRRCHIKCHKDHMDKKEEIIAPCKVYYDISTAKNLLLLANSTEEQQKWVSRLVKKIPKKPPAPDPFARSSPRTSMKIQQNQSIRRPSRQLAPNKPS

[29] = molecular target: Uncharacterized serine/threonine-protein kinase SBK3 (Homo sapiens) (UniProt P0C264); details: Compound concentration 1000.0 nM
[30] = molecular target: Serine/threonine-protein kinase Sgk3 (Homo sapiens) (UniProt Q96BR1); details: Compound concentration 1000.0 nM
[31] = molecular target: NUAK family SNF1-like kinase 2 (Homo sapiens) (UniProt Q9H093); details: Compound concentration 1000.0 nM
[32] = molecular target: Tyrosine-protein kinase Srms (Homo sapiens) (UniProt Q9H3Y6); details: Compound concentration 1000.0 nM
Chain of Tyrosine-protein kinase Srms (Homo sapiens) (Q9H3Y6 whole entry): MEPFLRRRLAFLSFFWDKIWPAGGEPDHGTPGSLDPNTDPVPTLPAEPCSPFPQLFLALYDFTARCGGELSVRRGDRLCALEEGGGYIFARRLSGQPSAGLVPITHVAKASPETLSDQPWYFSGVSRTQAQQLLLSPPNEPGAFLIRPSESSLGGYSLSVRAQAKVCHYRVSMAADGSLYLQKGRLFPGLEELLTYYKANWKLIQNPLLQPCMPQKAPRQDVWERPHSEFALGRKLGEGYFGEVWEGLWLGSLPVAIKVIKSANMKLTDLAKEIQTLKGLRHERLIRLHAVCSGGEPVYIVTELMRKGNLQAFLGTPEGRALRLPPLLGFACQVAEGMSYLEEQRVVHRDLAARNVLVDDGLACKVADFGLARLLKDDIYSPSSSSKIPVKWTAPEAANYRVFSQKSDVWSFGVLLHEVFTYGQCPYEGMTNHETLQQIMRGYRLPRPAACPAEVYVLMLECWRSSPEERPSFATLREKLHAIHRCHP

[33] = molecular target: Serine/threonine-protein kinase 35 (Homo sapiens) (UniProt Q8TDR2); details: Compound concentration 1000.0 nM
[34] = molecular target: Transient receptor potential cation channel subfamily M member 6 (Homo sapiens) (UniProt Q9BX84); details: Compound concentration 1000.0 nM
[35] = molecular target: Tyrosine-protein kinase receptor TYRO3 (Homo sapiens) (UniProt Q06418); details: Compound concentration 1000.0 nM
[36] = molecular target: Serine/threonine-protein kinase ULK1 (Homo sapiens) (UniProt O75385); details: Compound concentration 1000.0 nM
[37] = molecular target: 5-hydroxytryptamine receptor 1B (Homo sapiens) (UniProt P28222); details: Compound concentration 10.0 uM
Chain of 5-hydroxytryptamine receptor 1B (Homo sapiens) (P28222 whole entry): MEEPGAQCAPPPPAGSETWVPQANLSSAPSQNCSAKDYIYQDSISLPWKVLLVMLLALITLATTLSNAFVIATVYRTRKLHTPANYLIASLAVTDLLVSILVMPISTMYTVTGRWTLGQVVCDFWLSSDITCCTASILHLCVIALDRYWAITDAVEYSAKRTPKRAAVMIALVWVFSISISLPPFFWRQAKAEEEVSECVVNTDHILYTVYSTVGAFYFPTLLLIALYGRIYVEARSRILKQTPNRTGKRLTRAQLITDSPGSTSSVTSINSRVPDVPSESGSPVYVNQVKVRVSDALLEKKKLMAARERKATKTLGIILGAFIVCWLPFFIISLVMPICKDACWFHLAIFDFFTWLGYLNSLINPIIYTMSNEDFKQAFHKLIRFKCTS

[38] = molecular target: 5-hydroxytryptamine receptor 2B (Homo sapiens) (UniProt P41595); details: Compound concentration 10.0 uM
Chain of 5-hydroxytryptamine receptor 2B (Homo sapiens) (P41595 whole entry): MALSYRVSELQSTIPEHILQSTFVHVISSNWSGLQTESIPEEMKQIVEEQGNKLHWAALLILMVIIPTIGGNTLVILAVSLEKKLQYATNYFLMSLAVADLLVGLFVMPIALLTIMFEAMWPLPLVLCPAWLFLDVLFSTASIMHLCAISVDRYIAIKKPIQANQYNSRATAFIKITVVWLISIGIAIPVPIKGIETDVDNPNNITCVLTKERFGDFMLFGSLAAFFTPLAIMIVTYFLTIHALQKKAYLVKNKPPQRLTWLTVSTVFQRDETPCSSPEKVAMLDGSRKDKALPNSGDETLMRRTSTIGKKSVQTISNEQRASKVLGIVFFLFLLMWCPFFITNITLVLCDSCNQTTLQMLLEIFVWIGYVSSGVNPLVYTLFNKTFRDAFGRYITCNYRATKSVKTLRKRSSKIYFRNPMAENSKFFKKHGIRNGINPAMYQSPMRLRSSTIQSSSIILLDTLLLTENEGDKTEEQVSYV

[39] = molecular target: 5-hydroxytryptamine receptor 7 (Homo sapiens) (UniProt P34969); details: Compound concentration 10.0 uM
Chain of 5-hydroxytryptamine receptor 7 (Homo sapiens) (P34969 whole entry): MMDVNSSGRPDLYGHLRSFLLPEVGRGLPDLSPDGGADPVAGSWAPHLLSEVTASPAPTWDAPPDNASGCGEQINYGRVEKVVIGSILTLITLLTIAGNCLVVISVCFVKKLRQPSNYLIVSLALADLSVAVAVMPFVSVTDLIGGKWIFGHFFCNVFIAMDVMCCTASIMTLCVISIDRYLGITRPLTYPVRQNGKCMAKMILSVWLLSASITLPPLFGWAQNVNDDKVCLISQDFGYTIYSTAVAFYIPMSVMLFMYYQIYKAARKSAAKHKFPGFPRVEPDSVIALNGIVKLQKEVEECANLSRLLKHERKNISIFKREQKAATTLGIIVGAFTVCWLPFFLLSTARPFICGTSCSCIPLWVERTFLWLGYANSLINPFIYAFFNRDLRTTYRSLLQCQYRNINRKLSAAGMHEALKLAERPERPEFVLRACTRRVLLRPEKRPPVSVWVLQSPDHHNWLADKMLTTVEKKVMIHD

[40] = molecular target: Sodium-dependent serotonin transporter (Homo sapiens) (UniProt P31645); details: Compound concentration 10.0 uM
[41] = molecular target: Delta-type opioid receptor (Homo sapiens) (UniProt P41143); details: Compound concentration 10.0 uM
Chain of Delta-type opioid receptor (Homo sapiens) (P41143 whole entry): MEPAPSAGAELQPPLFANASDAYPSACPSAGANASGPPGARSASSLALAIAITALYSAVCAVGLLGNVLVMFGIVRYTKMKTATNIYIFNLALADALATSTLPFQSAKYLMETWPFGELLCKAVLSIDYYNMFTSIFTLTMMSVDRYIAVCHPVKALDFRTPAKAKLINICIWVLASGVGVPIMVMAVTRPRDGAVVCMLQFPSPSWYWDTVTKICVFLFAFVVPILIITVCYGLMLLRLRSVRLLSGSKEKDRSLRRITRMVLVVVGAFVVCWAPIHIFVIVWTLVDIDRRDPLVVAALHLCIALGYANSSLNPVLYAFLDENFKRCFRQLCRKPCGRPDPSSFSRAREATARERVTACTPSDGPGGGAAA

[42] = molecular target: GABA-A receptor; anion channel (Rattus norvegicus) (UniProt O09028+P15431+P18506+P18508+P19969+P20236+P23574+P23576+P28471+P28473+P30191+P62813+P63079+P63138+Q91ZM7+Q9ES14); details: Compound concentration 10.0 uM
[43] = molecular target: Muscarinic acetylcholine receptor M4 (Homo sapiens) (UniProt P08173); details: Compound concentration 10.0 uM

CS(=O)(=O)NCC[C@H](NC(=O)c1cncc2c1cnn2-c1ccc(F)cc1)c1ccnc(S(C)(=O)=O)c1 [BI 9307]
inactive: residual activity [1] 93% | residual activity [2] 100% | residual activity [3] 100% | residual activity [4] 100% | residual activity [5] 91% | residual activity [6] 78% | residual activity [7] 87% | residual activity [8] 88% | residual activity [9] 100% | residual activity [10] 91% | residual activity [11] 100% | residual activity [12] 100% | residual activity [13] 100% | residual activity [14] 100% | residual activity [15] 100% | residual activity [16] 100% | residual activity [17] 100% | residual activity [18] 100% | residual activity [19] 86% | residual activity [20] 100% | residual activity [21] 82% | residual activity [22] 95% | residual activity [23] 93% | residual activity [24] 90% | residual activity [25] 100% | residual activity [26] 100% | residual activity [27] 100% | residual activity [28] 100% | residual activity [29] 100% | residual activity [30] 100% | residual activity [31] 100% | residual activity [32] 83% | residual activity [33] 100% | residual activity [34] 100% | residual activity [35] 94% | residual activity [36] 100% | inhibition [37] 47.7% | inhibition [38] -5.9% | inhibition [39] 4.81% | inhibition [40] -7.52% | inhibition [41] -2.19% | inhibition [42] 23.5% | inhibition [43] 10.8%

CS(=O)(=O)c1cc(C2(NC(=O)c3cncc4c3cnn4-c3ccc(F)cc3)CC2)ccn1 [BI 639667]
inactive: residual activity [1] 100% | residual activity [2] 100% | residual activity [3] 82% | residual activity [4] 100% | residual activity [5] 95% | residual activity [6] 81% | residual activity [7] 90% | residual activity [8] 91% | residual activity [9] 100% | residual activity [10] 100% | residual activity [11] 100% | residual activity [12] 87% | residual activity [13] 96% | residual activity [14] 100% | residual activity [15] 100% | residual activity [16] 100% | residual activity [17] 100% | residual activity [18] 100% | residual activity [19] 88% | residual activity [20] 100% | residual activity [21] 74% | residual activity [22] 100% | residual activity [23] 100% | residual activity [24] 100% | residual activity [25] 94% | residual activity [26] 100% | residual activity [27] 100% | residual activity [28] 75% | residual activity [29] 100% | residual activity [30] 100% | residual activity [31] 100% | residual activity [32] 86% | residual activity [33] 100% | residual activity [34] 91% | residual activity [35] 91% | residual activity [36] 100% | inhibition [37] 13.5% | inhibition [38] 22.1% | inhibition [39] 10.5% | inhibition [40] -2.94% | inhibition [41] -5.92% | inhibition [42] 6.63% | inhibition [43] 13.3%
